These results are taken from US20060078499A1, “Use of hedgehog agonist to treat depression” (priority 2003, published 2006).

The subject of data set [1] is BrdU-positive cells in the dentate gyrus. Put plainly: BrdU labeling of cell proliferation, sacrifice 24 hr after BrdU. It counts as in vivo, mouse. Conditions: for cell proliferation (BrdU-labeled cells in the SGZ): 1 mg/kg/day mini pumps; for BrdU-labeled cells in dentate gyrus: 27 days of treatment, 24 hours after BrdU. How it is done: (§1) To assess the effect of antidepressant or X-irradiation treatments on the number of BrdU-positive cells, mice were administered BrdU (4×75 mg/kg i.p., dissolved in saline, every 2 hr; Roche Diagnostic, Indianapolis, Ind.) and sacrificed 24 hr after the last BrdU injection (FIG. 2A, 3B, 5C-D). To determine cell survival and phenotype after the various antidepressant treatments, fluoxetine, imipramine and vehicle-treated mice were allowed to survive for 28 days after the last BrdU injection (FIG. 2C-D, 3C). After deep anesthesia with a mixture of ketamine/xylazine (100 mg/kg and 7 mg/kg respectively), mice were transcardially perfused (cold saline for 2 min, followed by 4% cold paraformaldehyde/0.1 M phosphate buffer for 5 min) and brains were collected for immunohistochemistry. All brains were post-fixed overnight in 4% paraformaldehyde at 4° C., then cryoprotected in 30% sucrose and stored at 4° C. Serial sections of the brains were cut (35 μm sections) through the entire hippocampus (plates 41-61; Franklin and Paxinos, 1997) on a cryostat and stored in PBS with 0.1% NaN3. For DAB staining, sections were slide-mounted and boiled in citric acid, pH 6.0, for 5 min, rinsed with PBS, and treated with 0.01% trypsin in Tris/CaCl2 for 10 min. Brain sections were incubated for 30 min with 2N HCl and blocked with 5% NGS (Jackson ImmunoResearch, West Grove, Pa.). Sections were then incubated over night at room temperature with anti-mouse BrdU (1:100; Becton-Dickinson). After washing with PBS, sections were incubated for 1 hr with secondary antibody (1:200 biotinylated goat anti-mouse; Sigma-Aldrich, St. Louis, Mo.) followed by amplification with an avidin-biotin complex (Vector Laboratories). The staining was visualized with DAB (Sigma-Aldrich, St. Louis, Mo.). For fluorescent double-labeling, the DNA-denaturation procedure consisted of the following steps: 2 hr incubation in 50% formamide-2×SSC at 65° C., 5 min rinse in 2×SSC, 30 min incubation in 2N HCl at 37° C., and 10 min rinse in 0.1 M boric acid, pH 8.5. Sections were then incubated in TBS-0.1% Triton X-100 (Tx)-5% normal donkey serum (NDS) for 30 min, followed by anti-rat BrdU primary antibody (1:100; Accurate Westbury, N.Y. or Serotec, Oxford, UK) in TBS/NDS/Tx for 24 hrs at 4° C. in combination with either a mouse monoclonal antibody to NeuN (1:500; Chemicon, Temecula, Calif.) or a rabbit polyclonal antibody to GFAP (1:800; DAKO, Carpinteria, Calif.). The fluorescent secondary antibodies used were biotin-conjugated donkey anti-rat (1:200) plus streptavidin Cy2 (1:200), donkey anti-mouse Cy3 (1:500), or donkey anti-rabbit Cy3 (1:500) (Jackson ImmunoResearch, West Grove, Pa.). Fluorescent images were taken with a Bio-Rad MRC 1000 confocal laser scanning system coupled to a Zeiss Axiovert 100 inverted microscope. For each image acquisition, a Kalman average of five frames was used. For quantification of BrdU/NeuN or BrdU/GFAP double-labeled cells, at least 50 BrdU-positive cells per animal were analyzed using Z-plane sectioning (1 μm steps).
It has recently been shown that various antidepressant treatments, including fluoxetine, increase neurogenesis in the dentate gyrus (DG) of the rat hippocampus (Malberg et al., 2000). […] To confirm that chronic fluoxetine induces changes in the number of BrdU-positive cells in the DG, we treated adult mice with either vehicle or fluoxetine for 5, 11 or 28 days. On the final day of treatment, all animals were injected with BrdU (four injections of 75 mg/kg), sacrificed 24 hours later, and perfused for immunohistochemistry. The treatment with fluoxetine caused a 60% increase in the number of BrdU positive cells in the DG of animals after either 11 or 28 days, but had no effect in animals treated for 5 days (FIGS. 2A and B).
(§2) In this set of experiments, wild type and 5-HT1A receptor KO mice were injected with BrdU following 27 days of treatment with fluoxetine, imipramine, or vehicle. […]

Another data set has as its system 129/SvEv mice. The data set can be described thus: Novelty-suppressed feeding test (NSF). It counts as in vivo, mouse.
For data set [2] the following is noted: 129/SvEv, mouse, in vivo, po. How it is done:
Fluoxetine (Eli Lilly, Indianapolis, Ind.), Imipramine (Sigma-Aldrich, St. Louis, Mo.), Desipramine (Sigma-Aldrich, St. Louis, Mo.) and Haloperidol (Sigma-Aldrich, St. Louis, Mo.) were dissolved in tap water at a concentration of 80, 160, 160, and 8 mg/L, respectively. These concentration were established based on the average drinking amount and average weight of the mice used in the study to achieve a final dose of 10 (fluoxetine), 20 (imipramine and desipramine) and 1 (haloperidol) mg/kg/day. […] Vehicle animals received tap water. 8-hydroxy-2-(di-n-propylamino) tetralin (8-OH-DPAT, Sigma-Aldrich, St. Louis, Mo.) was dissolved in sterile saline (0.9% NaCl) at a concentration of 4.5 mg/ml, and delivered through Alzet osmotic mini-pumps (model 2004, Alzet, Cupertino, Calif.) implanted subcutaneously 28 days prior to behavioral testing. The final average dose delivered was 1 mg/kg/day. Sham mice were implanted with mini-pumps containing sterile saline.

Data set [3] deals with BrdU-positive cells in the dentate gyrus. The data set can be described thus: BrdU labeling of cell proliferation, sacrifice 24 hr after BrdU. It counts as in vivo, mouse. The following applies: chronic treatment.
The test system of data set [4] is BrdU-positive cells within the SGZ and granule cell layer. The data set can be described thus: Survival and phenotype of BrdU-positive cells 28 days after BrdU injection. Conditions: for BrdU-positive cells surviving 28 days after BrdU injection: chronic treatment. It counts as in vivo, mouse. As for the experimental part:
as §1
To determine the fate of hippocampal cells labeled with BrdU following chronic treatment with either fluoxetine or vehicle, animals were allowed to survive for a period of four weeks after injection of BrdU. During this time fluoxetine oral treatment was suspended and animals were returned to tap water. Brain sections were co-labeled with antibodies raised against BrdU and either the mature neuronal marker NeuN or the astroglial marker GFAP. […] The percentage of BrdU-positive cells within the SGZ and granule cell layer that expressed NeuN was 70±2%, and the percentage of BrdU-positive cells that expressed GFAP was 15±3%. These proportions were not influenced by the antidepressant treatment, as previously reported (Malberg et al., 2000).
as §2

In the next data set the test system is BALB/c mice. Put plainly: Chronic unpredictable stress paradigm (CUS). It counts as in vivo, mouse. Conditions: for state of the fur (coat score) / grooming latency: 10 mg/kg/day i.p.; for weight loss induced by stress: data not shown. How it is done: The stress regimen used is a variant of the chronic mild stress procedures described by Willner et al. (Willner et al., 1992). Mice were subjected to various and repeated unpredictable stressors for a period of five weeks (Griebel et al., 2002). The different stressors used were: alterations of the bedding (repeated sawdust changing, removal of sawdust, damp sawdust, substitution of sawdust with 37° C. water); cage tilting (45°); predator sounds (15 min.); cage shift (mice were positioned in the empty cage of another male); light to dark or dark to light shifts (four light/dark successions of 30 min every 24 hours); reversal of the light/dark cycle. The fluoxetine treatment (10 mg/kg/day, i.p.) started at the beginning of the third week. The state of the coat was assessed at the end of the stress regimen (end of fifth week). The total score resulted from the sum of the score of seven different body parts: head, neck, dorsal coat, ventral coat, tail, forepaws and the hindpaws. A score of 0 was given for a well-groomed coat and 1 for a spoiled coat (see Griebel, 2002). The grooming latency was assessed at the end of the sixth week. This test consisted in squirting 200 μl of a 10% sucrose solution on the mouse's snout. The latency to start grooming was then recorded.
The CUS protocol consists of the sequential application of a number of stressors, presented in a varied and unpredictable manner during 5 weeks. The continued application of these stressors produces a deterioration in the state of the coat, an impaired grooming response, and weight loss (Griebel et al., 2002; Willner et al., 1992). ADs such as fluoxetine can reverse these stress-induced effects after chronic, but not acute, administration (Griebel et al., 2002; Willner et al., 1992).
Sham and irradiated mice were subjected to five weeks of CUS, beginning two weeks after the final X-ray dose, and half of the animals in each group were administered fluoxetine (10 mg/kg/day, i.p.) from weeks 3-6. The state of each animal's fur was assessed at the end of the stress period, and assigned a score based on observations from several body regions (see methods). Fluoxetine treatment was continued for one more week, after which we measured the latency to begin grooming following application of a sucrose solution to the head of each animal.

Where [5] appears, read: 5-HT1A knockout (-/-) mice, 28 days, vs vehicle.
The mark [6] stands for this setting: 28-day treatment via drinking water, compared to vehicle.
The mark [7] stands for this setting: wild type (+/+) mice, 28 days, vs vehicle.
Where [8] appears, read: four weeks after BrdU, chronic fluoxetine or vehicle, proportions not influenced by treatment.
The mark [9] stands for this setting: 5-day treatment via drinking water, compared to vehicle.
The mark [10] stands for this setting: X-irradiated animals, chronic treatment.
Where [11] appears, read: sham (non-irradiated) animals, chronic treatment.

Molecules are shown by their SMILES. A value given as a limit tells only on which side of the number the result lay.

Protocol for 129/SvEv mice: The Novelty-suppressed feeding test was carried out during a 5-min period as previously described (Santarelli et al., 2001). Briefly, the testing apparatus consisted of a plastic box, 50×50×20 cm. The floor was covered with approximately 2 cm of wooden bedding. Twenty-four hours prior to behavioral testing, all food was removed from the home cage. At the time of testing, a single pellet of food (regular chow) was placed on a white paper platform positioned in the center of the box. An animal was placed in a corner of the maze and a stopwatch was immediately started. The measure of interest (chewing) was scored when the mouse was sitting on its haunches and biting with the use of forepaws. Immediately after this test, mice were transferred to their home cage and the amount of food consumed in 5 min was measured (home cage food consumption). […] Mice were always tested during the light period.
The NSF is a conflict test in which food-deprived animals are presented with a food pellet placed in the center of a brightly-lit open field. This paradigm elicits competing motivations: the drive to eat the food pellet, and the fear of venturing into the center of the arena.
Haloperidol, an antipsychotic that antagonizes D2 dopamine receptors, was used as a negative control because it is devoid of antidepressant activity in humans. NSF performance was assessed after either 5 or 28 days of oral drug administration.

For the compound `CCCN(CCC)C1CCc2cccc(O)c2C1` (stereo not shown) [8-OH-DPAT, 8-hydroxy-2-(di-n-propylamino) tetralin], the “cell proliferation (BrdU-labeled cells in the SGZ)” value is “not observed” in data set [1] (5-HT1A receptor KO mice, chronic treatment) and “increase in cell proliferation” in data set [1] (WT mice, chronic treatment). Further, the latency to feed entry with 129/SvEv mice (5-HT1A receptor KO mice, 28 days s.c. osmotic mini pumps, 1 mg/kg/day, vs sham) was “ineffective”; in the data set on 129/SvEv mice (WT mice, 28 days s.c. osmotic mini pumps, 1 mg/kg/day, vs sham), “significantly decreased”.

As for `NCCC(Oc1ccc(C(F)(F)F)cc1)c1ccccc1` (stereo not shown) [nor-fluoxetine], the “time by which steady serum levels had been achieved” value (from here on “time”) in data set [2] is listed as at most 5 days.

In the case of `CNCCCN1c2ccccc2CCc2ccccc21` [desipramine, Desipramine], the “time” value in data set [2] was at most 5 days. For the same compound, the latency to feed result in the data set on 129/SvEv mice (setting [5]) is “effective”; in the data set with 129/SvEv mice (setting [6]), “significant decreases”; with 129/SvEv mice (setting [7]) it was “significantly decreased”.

As for `O=C(CCCN1CCC(O)(c2ccc(Cl)cc2)CC1)c1ccc(F)cc1` [Haloperidol], in the data set with 129/SvEv mice (setting [6]), the latency to feed entry is given as “ineffective”.

In the case of `CNCCC(Oc1ccc(C(F)(F)F)cc1)c1ccccc1` (stereo not shown) [fluoxetine, Fluoxetine], the “cell proliferation in the SVZ” value in data set [3] is “had no effect”. In data set [2], the “time” value was at most 5 days. In addition, the “BrdU-labeled cells in dentate gyrus” value is “had no effect” in data set [1] (5-HT1A receptor KO mice) and “two-fold increase” in data set [1] (wild type mice). For the same compound, in data set [1] (after either 11 or 28 days of treatment, vs vehicle), the “increase in the number of BrdU positive cells in the DG” value was found to be 60%. Besides, the “number of BrdU positive cells in the DG” value in data set [1] (animals treated for 5 days) is recorded as “had no effect”. In addition, the “cell proliferation after irradiation” value in data set [1] (irradiated animals, chronic treatment) is listed as “had no effect”. For the same compound, in data set [1] (non-irradiated mice, chronic treatment), the “cell proliferation in the SGZ” value is given as “increased cell proliferation”. Moreover, the “BrdU-positive cells surviving 28 days after BrdU injection” value in data set [4] (5-HT1A receptor KO mice) is on record as “not in KO”; in data set [4] (WT mice), “had an effect”. The “percentage of BrdU-positive cells that expressed GFAP” value in data set [4] (setting [8]) came to 15±3%. The “percentage of BrdU-positive cells that expressed NeuN” value in data set [4] (setting [8]) worked out at 70±2%. In addition, the latency to feed entry is on record as “insensitive” in the data set with 129/SvEv mice (setting [5]); “had no effect” in the data set with 129/SvEv mice (setting [9]); “significant decreases” with 129/SvEv mice (setting [6]); “no such anxiolytic-like effect” in the data set with 129/SvEv mice (setting [10]); “significant reduction” in the data set on 129/SvEv mice (setting [11]); “significantly decreased” in the data set with 129/SvEv mice (setting [7]). Moreover, the “state of the fur (coat score)” value is recorded as “absent” with BALB/c mice (irradiated animals) and “significantly improved” with BALB/c mice (sham animals). The “weight loss induced by stress” value in the data set on BALB/c mice (irradiated animals) is given as “blocked this effect”; with BALB/c mice (sham animals) it was “trend to reverse the weight loss”. Also, the grooming latency entry in the data set on BALB/c mice (irradiated mice) is listed as “not in irradiated mice”; in the data set on BALB/c mice (sham mice) it was “decreased”.

For the compound `CN(C)CCCN1c2ccccc2CCc2ccccc21` [imipramine, Imipramine], in data set [2], the “time” value was at most 5 days. Also, the “BrdU-labeled cells in dentate gyrus” value in data set [1] (5-HT1A receptor KO mice) and in data set [1] (wild type mice) was “significant increase” in each case. The “increase in the number of BrdU positive cells (SGZ and GCL)” value in data set [1] (both genotypes (+/+ and 5-HT1A -/-), 4 weeks of treatment) was around 2 fold. In addition, the “BrdU-positive cells surviving 28 days after BrdU injection” value in data set [4] (5-HT1A receptor KO mice) and in data set [4] (WT mice) was “effective” throughout. The latency to feed entry in the data set with 129/SvEv mice (setting [5]) is reported as “effective”; in the data set with 129/SvEv mice (setting [9]) it was “had no effect”; in the data set on 129/SvEv mice (setting [6]), “significant decreases”; in the data set on 129/SvEv mice (setting [10]) it was “no such anxiolytic-like effect”; with 129/SvEv mice (setting [11]) it was “significant reduction”; in the data set on 129/SvEv mice (setting [7]), “significantly decreased”.
